According to patent publication US9566262B2, “Itch suppression by fucoxanthin” (THE RITSUMEIKAN TRUST, priority 2015, dated 2017):

Experiments:
[1] = system: bone marrow-derived mast cells (BMMCs); experiment: Granule formation in BMMCs, tryptase immunostaining; format: cell-based, mice; conditions: 10 μM, vs control-treated cells
Procedure: Mature mast cells were prepared in the same manner as described in Example 5. The BMMCs obtained were mounted on a glass slide and heat-fixed. The analysis of the preparation was performed according to the method described in Kosaka, T., Fukui, R., Matsui, M. et al. (2014) “RAGE, Receptor of Advanced Glycation Endoproducts, Negatively Regulates Chondrocytes Differentiation.” PLoS ONE 9(10): e108819. Briefly, the cells were reacted with a mouse anti-mast cell tryptase antibody (AB2378, Abcam, Tokyo, Japan) and then reacted with an FITC-conjugated anti-mouse IgG (Santa Cruz Biotechnology, Inc.) and 1 μg/mL DAPI (4′,6-diamino-2-phenylindole dihydrochloride). The fluorescent image was analyzed by EVOS® FL Cell Imaging System (Life Technologies Corp).
To confirm where the effect of fucoxanthin on granule formation in mast cells is specific rather than common to carotenoids, we compared granule formation between fucoxanthin-treated and astaxanthin-treated BMMCs by immunostaining of tryptase. The immunostaining assay was performed in the same manner as described in Example 6.

GATA-luc = experiment: Luciferase reporter assay in HEK293 cells; format: cell-based; conditions: HEK293, treated 3 hours after transfection for 48 hours, vs DMSO (fucoxanthin 0.1, 1, 10 μM)
From the text: The plasmids pGL3-Cebpα promoter-luc and pGL3-Mitf1 promoter-luc were provided by Dr. Hua Huang (University of Colorado school, Denver, USA). The plasmid NF-κB-luc was purchased from Agilent Technologies (Santa Clara, Calif.). The GATA-responsive reporter vector was provided by Dr. Ishijima (Takasaki University of Health and welfare, Gunma, Japan). Three GATA motifs from mouse α-1 globulin gene (5′-TGATAA-3′) were tandemly inserted into Sma I site of pRBGP3. HDC promoter was provided by Dr. Ootsu (Tohoku University school of Medicine, Sendai, Japan) and cloned into Kpn I-Hind III site of pGL4.10 (Hdc promoter-luc). The reporter assay was performed according to the method described in Kanatani, N. et al. Briefly, HEK293 cells were transfected with each of the luciferase constructs (0.2 μg) or pRL-CMV (Promega, Madison, Wis.) (0.001 μg). At 3 hours after transfection, the cells were treated with fucoxanthin (0.1 μM, 1 μM or 10 μM) or DMSO for 48 hours and reporter assay was performed using Dual-Luciferase® Reporter Assay System (Promega). Luciferase activity was measured using luminometer model TD20/20n (Turner BioSystems, Sunnyvale, Calif.) and normalized to Renilla luciferase activity expressed by CMV promoter.
GATA-reporter assay was performed using HEK293 cells expressing GATA-luc prepared in Example 8, in the same manner as described in Example 8 except using various carotenoids (fucoxanthin, astaxanthin, lycopene, β-carotene or retinoic acid) in place of fucoxanthin.

NC/Nga mice [2] = experiment: Serum IgE content by ELISA in NC/Nga mice; format: in vivo; conditions: topical application for 5 weeks, PiCl-sensitized, vs Vaseline
From the text: (§1) NC/Nga mice (5 weeks old, female) were purchased from Japan SLC, Inc. […] On day 12, day 19, day 26 and day 33 after starting application of Vaseline or fucoxanthin, 0.8% picryl chloride (PiCl) was further applied to the back skin of the mice. The behaviors of the mice were observed by video monitoring. On day 34 after starting application of Vaseline or fucoxanthin, bromodeoxyuridine (BrdU, Nacalai Tesque) (0.[…] weight) was intraperitoneally administered to the mice. At 5 weeks after starting application of Vaseline or fucoxanthin, the time each mouse spent for scratching behavior in 10 minutes was measured by video monitoring. Then, the mice were sacrificed and the auricular lymph node, blood and skin were obtained. Serum IgE content was determined by enzyme-linked immunosorbent assay (ELISA) using Mouse IgE Assay Kit (Morinaga Institute of Biological Science, Inc.). […] BrdU uptake was determined by ELISA using Cell Proliferation ELISA, BrdU (Colorimetric) (Roche Diagnostics K.K.). […] Also, serum IgE levels and swelling of the auricular lymph nodes of the mice were determined in the same manner as described in Example 2.

NC/Nga mice [3] = experiment: Swelling (length) of the auricular lymph node in NC/Nga mice; format: in vivo; conditions: topical application for 5 weeks, PiCl-sensitized, vs Vaseline
From the text: as §1

NC/Nga mice [4] = experiment: Clinical symptoms of dermatitis in PiCl-sensitized NC/Nga mice; format: in vivo; conditions: topical application plus PiCl, at 5 weeks
Procedure: Next, we examined the effects of fucoxanthin and astaxanthin on clinical symptoms of dermatitis in NC/Nga mice. In the same manner as described in Example 2, fucoxanthin or astaxanthin and PiCl were applied to NC/Nga mice. […] In the same manner as described in Example 2, Vaseline, fucoxanthin or tacrolimus and PiCl were applied to NC/Nga mice. […] Also, serum IgE levels and swelling of the auricular lymph nodes of the mice were determined in the same manner as described in Example 2.

NC/Nga mice [5] = experiment: Transdermal water loss (TEWL) in the skin of NC/Nga mice; format: in vivo; conditions: topical application plus PiCl, at 5 weeks, vs Vaseline
Procedure: Transdermal water loss (TEWL) in the skin of the mice treated with fucoxanthin was also measured and compared with that in the skin of the mice treated with tacrolimus.

CC1=C(/C=C/C(C)=C/C=C/C(C)=C/C=C/C=C(C)/C=C/C=C(C)/C=C/C2=C(C)C(=O)[C@@H](O)CC2(C)C)C(C)(C)C[C@H](O)C1=O [astaxanthin, reference compound]
granule formation (tryptase-positive cells / immunoreactivity against tryptase) [1]: not significantly reduced
GATA-luc expression (GATA-luc): not downregulated

CC(C)=CCC/C(C)=C/C=C/C(C)=C/C=C/C(C)=C/C=C/C=C(C)/C=C/C=C(C)/C=C/C=C(\C)CCC=C(C)C [lycopene]
GATA-luc expression (GATA-luc): not downregulated

C=CC[C@@H]1/C=C(\C)C[C@H](C)C[C@H](OC)[C@H]2O[C@@](O)(C(=O)C(=O)N3CCCC[C@H]3C(=O)O[C@H](/C(C)=C/[C@@H]3CC[C@@H](O)[C@H](OC)C3)[C@H](C)[C@@H](O)CC1=O)[C@H](C)C[C@@H]2OC [tacrolimus, reference compound]
serum IgE level (NC/Nga mice [2]): neither ear swelling (FIG. 9A) nor serum IgE level (FIG. 9B) were affected
swelling of the auricular lymph node (ear swelling) (NC/Nga mice [3]): neither ear swelling (FIG. 9A) nor serum IgE level (FIG. 9B) were affected
clinical symptoms of dermatitis (AD symptoms) (NC/Nga mice [4]): protected AD symptoms partially
transdermal water loss (TEWL) (NC/Nga mice [5]): did not affect TEWL

CC1=C(/C=C/C(C)=C/C=C/C(C)=C/C=C/C=C(C)/C=C/C=C(C)/C=C/C2=C(C)CCCC2(C)C)C(C)(C)CCC1 [β-carotene]
GATA-luc expression (GATA-luc): rather upregulated
